IC50 data for 20 compounds are collected here from patent publication US8148391B2 (Cephalon, Inc., priority 2006, dated 2012).

Experiment [1] has as its target T1, baculovirus-expressed ALK (Homo sapiens, UniProt Q9UM73).
T1 construct: host or cells: baculovirus expression system
The experiment in a line: ALK Kinase Assay (ELISA-type, time-resolved fluorescence). It is filed as biochemical. As to conditions: ALK kinase inhibition, 1 μM ATP (Km level); read-out: ALK Activity. The procedure, abridged:
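Substrate coating: phospholipase C-γ, 10 μg/mL in TBS. Kinase step: 30 ng/ml ALK, 15 min, 37° C. Detection and analysis: Eu-N1 PT66 antibody, with IC50 fitted as a sigmoidal variable-slope dose-response curve.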

The target in experiment [2] is T2, c-Met (cytoplasmic domain) (Homo sapiens, UniProt P08581).
T2 construct: 10 ng/mL c-Met (cytoplasmic domain, Invitrogen Corporation #PV3143); purchased Invitrogen Corporation PV3143
T2 sequence (P08581 956-1390 limits assumed): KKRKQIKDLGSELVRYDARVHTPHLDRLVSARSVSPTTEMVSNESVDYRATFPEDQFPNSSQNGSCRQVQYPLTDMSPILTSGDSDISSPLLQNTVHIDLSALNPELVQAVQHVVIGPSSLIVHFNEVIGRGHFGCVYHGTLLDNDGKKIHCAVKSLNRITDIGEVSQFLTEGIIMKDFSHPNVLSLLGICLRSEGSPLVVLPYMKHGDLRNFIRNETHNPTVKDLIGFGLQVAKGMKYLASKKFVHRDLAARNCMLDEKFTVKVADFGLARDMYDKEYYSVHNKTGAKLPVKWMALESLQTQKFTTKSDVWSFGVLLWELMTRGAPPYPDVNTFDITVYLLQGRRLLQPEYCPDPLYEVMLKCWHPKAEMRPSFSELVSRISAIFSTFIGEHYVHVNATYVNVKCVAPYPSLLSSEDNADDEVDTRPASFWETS
Description: c-Met Kinase Assay (same methods as for ALK, with modifications). It is filed as biochemical. As to conditions: c-Met kinase inhibition, 1 μM ATP (Km level); read-out: cMet Activity. Put shortly: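 Wells were coated with 10 μg/mL phospholipase C-γ substrate in TBS, and reactions were started with 10 ng/mL c-Met cytoplasmic domain and run at 37° C for 15 minutes. Phosphorylated product was detected with Eu-N1-labeled PT66 antibody. IC50 values came from sigmoidal variable-slope fits of percent inhibition versus log compound concentration.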

Structures are written as SMILES.

T1 sequence (Q9UM73 19-1620): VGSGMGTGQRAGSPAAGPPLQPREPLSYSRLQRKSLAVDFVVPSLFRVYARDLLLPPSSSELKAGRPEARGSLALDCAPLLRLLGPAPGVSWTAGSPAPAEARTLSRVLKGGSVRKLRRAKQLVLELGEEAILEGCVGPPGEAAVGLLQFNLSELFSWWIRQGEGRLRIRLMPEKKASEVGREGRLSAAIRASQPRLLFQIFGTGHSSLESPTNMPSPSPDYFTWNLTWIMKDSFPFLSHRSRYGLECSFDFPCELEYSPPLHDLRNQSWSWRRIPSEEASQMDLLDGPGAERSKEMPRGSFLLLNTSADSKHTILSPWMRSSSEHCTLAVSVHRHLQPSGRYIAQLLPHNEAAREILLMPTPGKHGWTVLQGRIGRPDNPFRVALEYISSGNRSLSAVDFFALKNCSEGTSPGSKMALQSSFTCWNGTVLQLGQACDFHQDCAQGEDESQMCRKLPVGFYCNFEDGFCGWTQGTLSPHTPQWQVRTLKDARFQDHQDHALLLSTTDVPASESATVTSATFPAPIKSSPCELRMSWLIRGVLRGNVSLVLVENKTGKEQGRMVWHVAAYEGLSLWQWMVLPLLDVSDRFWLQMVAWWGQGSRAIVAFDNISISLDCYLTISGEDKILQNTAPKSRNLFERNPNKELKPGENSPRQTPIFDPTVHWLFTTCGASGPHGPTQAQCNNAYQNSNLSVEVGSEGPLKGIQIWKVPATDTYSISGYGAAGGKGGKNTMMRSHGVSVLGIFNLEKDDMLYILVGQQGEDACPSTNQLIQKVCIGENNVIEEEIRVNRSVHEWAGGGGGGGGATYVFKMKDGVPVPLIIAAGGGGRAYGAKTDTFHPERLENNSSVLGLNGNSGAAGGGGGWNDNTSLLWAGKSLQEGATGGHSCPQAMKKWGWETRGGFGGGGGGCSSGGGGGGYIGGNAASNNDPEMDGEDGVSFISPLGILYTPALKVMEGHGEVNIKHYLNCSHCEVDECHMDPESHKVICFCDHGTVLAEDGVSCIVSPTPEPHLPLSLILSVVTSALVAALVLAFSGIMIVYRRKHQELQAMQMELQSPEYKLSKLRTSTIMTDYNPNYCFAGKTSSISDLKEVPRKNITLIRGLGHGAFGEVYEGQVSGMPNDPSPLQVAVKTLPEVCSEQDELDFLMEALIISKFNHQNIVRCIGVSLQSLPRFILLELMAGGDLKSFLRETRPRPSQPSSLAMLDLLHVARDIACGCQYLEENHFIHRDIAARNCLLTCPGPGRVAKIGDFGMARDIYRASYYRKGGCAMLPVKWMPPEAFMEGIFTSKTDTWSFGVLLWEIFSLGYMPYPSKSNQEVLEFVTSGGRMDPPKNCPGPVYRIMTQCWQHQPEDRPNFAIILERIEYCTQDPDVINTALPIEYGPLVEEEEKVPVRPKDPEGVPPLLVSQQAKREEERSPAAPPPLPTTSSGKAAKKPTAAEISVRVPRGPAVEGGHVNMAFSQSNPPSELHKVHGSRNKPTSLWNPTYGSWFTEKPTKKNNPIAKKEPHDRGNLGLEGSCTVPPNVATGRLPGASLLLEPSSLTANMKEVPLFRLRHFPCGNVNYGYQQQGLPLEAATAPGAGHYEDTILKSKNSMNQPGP

On to `CCN1CCc2ccc(Nc3ncc(Cl)c(Nc4cc(Cl)ccc4C(=O)NC)n3)cc2CC1` [Example 33, 4-Chloro-2-[5-chloro-2-(3-ethyl-2,3,4,5-tetrahydro-1H-benzo[d]azepin-7-ylamino)-pyrimidin-4-ylamino]-N-methyl-benzamide], for which the IC50 in experiment [1] and in experiment [2] was < 100 nM in each case.
On to `CNS(=O)(=O)c1ccccc1Nc1nc(Nc2ccc3c(c2)CCN(CCOC)CC3)ncc1Cl` [Example 35, 2-{5-Chloro-2-[3-(2-methoxy-ethyl)-2,3,4,5-tetrahydro-1H-benzo[d]azepin-7-ylamino]-pyrimidin-4-ylamino}-N-methyl-benzenesulfonamide], for which the IC50 in experiment [1] is < 100 nM; in experiment [2], 100 to 1000 nM.
Regarding `COCCN1CCc2ccc(Nc3ncc(Cl)c(N[C@@H]4CCCC[C@H]4NS(C)(=O)=O)n3)cc2CC1` [Example 36, N-((1R,2R)-2-{5-Chloro-2-[3-(2-methoxy-ethyl)-2,3,4,5-tetrahydro-1H-benzo[d]azepin-7-ylamino]-pyrimidin-4-ylamino}-cyclohexyl)-methanesulfonamide], the values for the IC50 in experiment [1] and in experiment [2] were < 100 nM and 1000 to 10000 nM, respectively.
Take `CNC(=O)c1ccccc1Nc1nc(Nc2ccc3c(c2)CCN(CCF)CC3)ncc1Cl` [Example 38, 2-{5-Chloro-2-[3-(2-fluoro-ethyl)-2,3,4,5-tetrahydro-1H-benzo[d]azepin-7-ylamino]-pyrimidin-4-ylamino}-N-methyl-benzamide]: the IC50 in experiment [1] and in experiment [2] was < 100 nM in each case.
In the case of `CNC(=O)c1ccccc1Nc1nc(Nc2ccc3c(c2)CCN(CC(C)(C)F)CC3)ncc1Cl` [Example 39, 2-{5-Chloro-2-[3-(2-fluoro-2-methyl-propyl)-2,3,4,5-tetrahydro-1H-benzo[d]azepin-7-ylamino]-pyrimidin-4-ylamino}-N-methyl-benzamide], the IC50 in experiment [1] is < 100 nM; in experiment [2], 100 to 1000 nM.
Consider `CC(C)(F)CN1CCc2ccc(Nc3ncc(Cl)c(N[C@@H]4CCCC[C@H]4NS(C)(=O)=O)n3)cc2CC1` [Example 40, N-((1R,2R)-2-{5-Chloro-2-[3-(2-fluoro-2-methyl-propyl)-2,3,4,5-tetrahydro-1H-benzo[d]azepin-7-ylamino]-pyrimidin-4-ylamino}-cyclohexyl)-methanesulfonamide], for which the results for the IC50 in experiment [1] and in experiment [2] were < 100 nM and 1000 to 10000 nM, respectively.
In the same order, the values of `CNC(=O)c1ccccc1Nc1nc(Nc2ccc3c(c2)CCN(CC(F)(F)F)CC3)ncc1Cl` [Example 41, 2-{5-Chloro-2-[3-(2,2,2-trifluoro-ethyl)-2,3,4,5-tetrahydro-1H-benzo[d]azepin-7-ylamino]-pyrimidin-4-ylamino}-N-methyl-benzamide] are < 100 nM and < 100 nM.
In the same order, the values of `CNC(=O)c1ccccc1Nc1nc(Nc2ccc3c(c2)CCN(S(C)(=O)=O)CC3)ncc1Cl` [Example 42, 2-[5-Chloro-2-(3-methanesulfonyl-2,3,4,5-tetrahydro-1H-benzo[d]azepin-7-ylamino)-pyrimidin-4-ylamino]-N-methyl-benzamide] are < 100 nM and < 100 nM.
Consider `CNS(=O)(=O)c1ccccc1Nc1nc(Nc2ccc3c(c2)CCN(S(C)(=O)=O)CC3)ncc1Cl` [Example 43, 2-[5-Chloro-2-(3-methanesulfonyl-2,3,4,5-tetrahydro-1H-benzo[d]azepin-7-ylamino)-pyrimidin-4-ylamino]-N-methyl-benzenesulfonamide], for which the IC50 in experiment [1] and in experiment [2] was < 100 nM in each case.
As for `CNC(=O)c1ccccc1Nc1nc(Nc2ccc3c(c2)CCN(C(=O)C(F)(F)F)CC3)ncc1Cl` [Example 44, 2-{5-Chloro-2-[3-(2,2,2-trifluoro-acetyl)-2,3,4,5-tetrahydro-1H-benzo[d]azepin-7-ylamino]-pyrimidin-4-ylamino}-N-methyl-benzamide], the IC50 in experiment [1] and in experiment [2] was < 100 nM throughout.
Regarding `CNC(=O)c1ccccc1Nc1nc(Nc2ccc3c(c2)CCNCC3)ncc1Cl` [Example 45, 2-[5-Chloro-2-(2,3,4,5-tetrahydro-1H-benzo[d]azepin-7-ylamino)-pyrimidin-4-ylamino]-N-methyl-benzamide], the IC50 in experiment [1] and in experiment [2] was < 100 nM throughout.
For `CNC(=O)c1ccccc1Nc1nc(Nc2ccc3c(c2)CCN(C)CC3)ncc1Cl` [Example 46, 2-[5-Chloro-2-(3-methyl-2,3,4,5-tetrahydro-1H-benzo[d]azepin-7-ylamino)-pyrimidin-4-ylamino]-N-methyl-benzamide], the IC50 in experiment [1] and in experiment [2] was < 100 nM throughout.
As to `CNC(=O)c1ccccc1Nc1nc(Nc2ccc3c(c2)CCN(C(C)C)CC3)ncc1Cl` [Example 47, 2-[5-Chloro-2-(3-isopropyl-2,3,4,5-tetrahydro-1H-benzo[d]azepin-7-ylamino)-pyrimidin-4-ylamino]-N-methyl-benzamide], the IC50 in experiment [1] and in experiment [2] was < 100 nM in each case.
With `CCN1CCc2cc(Nc3ncc(Cl)c(Nc4ccccc4C(=O)NC)n3)c(OC)cc2CC1` [Example 48, 2-[5-Chloro-2-(3-ethyl-8-methoxy-2,3,4,5-tetrahydro-1H-benzo[d]azepin-7-ylamino)-pyrimidin-4-ylamino]-N-methyl-benzamide], the IC50 in experiment [1] was < 100 nM; in experiment [2] it was 1000 to 10000 nM.
Regarding `CCN1CCc2ccc(OC)c(Nc3ncc(Cl)c(Nc4ccccc4S(=O)(=O)NC)n3)c2CC1` [Example 49, 2-[5-Chloro-2-(3-ethyl-7-methoxy-2,3,4,5-tetrahydro-1H-benzo[d]azepin-6-ylamino)-pyrimidin-4-ylamino]-N-methyl-benzenesulfonamide], the IC50 in experiment [1] is < 100 nM; in experiment [2], > 10000 nM.
On the same counts, the results for `CCN1CCc2cc(Nc3ncc(Cl)c(Nc4ccccc4C(=O)NC)n3)c(OC)c(N)c2CC1` [Example 50, 2-[2-(9-Amino-3-ethyl-8-methoxy-2,3,4,5-tetrahydro-1H-benzo[d]azepin-7-ylamino)-5-chloro-pyrimidin-4-ylamino]-N-methyl-benzamide] are < 100 nM and > 10000 nM.
Consider `CNC(=O)c1ccccc1Nc1nc(Nc2ccc3c(c2)CCOCC3)ncc1Cl` [Example 51, 2-[5-Chloro-2-(5,6,8,9-tetrahydro-7-oxa-benzocyclohepten-2-ylamino)-pyrimidin-4-ylamino]-N-methyl-benzamide], for which the IC50 in experiment [1] and in experiment [2] was < 100 nM throughout.
In the case of `CCN1CC2OC(C1)c1cc(Nc3ncc(Cl)c(Nc4ccccc4C(=O)NC)n3)ccc12` (stereo not shown) [Example 61, 2-[5-Chloro-2-(10-ethyl-12-oxa-10-aza-tricyclo[6.3.1.0*2,7*]dodeca-2,4,6-trien-4-ylamino)-pyrimidin-4-ylamino]-N-methyl-benzamide], the IC50 in experiment [1] is < 100 nM; in experiment [2], 100 to 1000 nM.
For the compound `CNC(=O)c1ccccc1Nc1nc(Nc2ccc3c(c2)C2CN(C(C)C)CC3O2)ncc1Cl` (stereo not shown) [Example 62, 2-[5-Chloro-2-(10-isopropyl-12-oxa-10-aza-tricyclo[6.3.1.0*2,7*]dodeca-2,4,6-trien-4-ylamino)-pyrimidin-4-ylamino]-N-methyl-benzamide], the IC50 in experiment [1] is < 100 nM; in experiment [2] it was 100 to 1000 nM.
In the case of `C#CCN1CC2OC(C1)c1cc(Nc3ncc(Cl)c(Nc4ccccc4C(=O)NC)n3)ccc12` (stereo not shown) [Example 63, 2-[5-Chloro-2-(10-prop-2-ynyl-12-oxa-10-aza-tricyclo[6.3.1.0*2,7*]dodeca-2,4,6-trien-4-ylamino)-pyrimidin-4-ylamino]-N-methyl-benzamide], the IC50 is 100 to 1000 nM in experiment [1] and < 100 nM in experiment [2].
